Test results reported in US7169789B2 (Kirin Beer Kabushiki Kaisha, priority 1999, dated 2007).
Where two headings read alike, the source gives them in different places.

Assays:
[1] = test system: A375 human melanoma cells; assay: Karyomorphosis test; assay type: cell-based; details: test compound 10 μM and 1 μM, 48 hr, nuclei stained with propidium iodide
Procedure: A375 human melanoma cells (2×10^4) (obtained from Japanese Foundation for Cancer Research) were incolulated on a culture slide (manufactured by Falcon) and were cultured at 37° C. After the elapse of 5 hr from the initiation of the cultivation, the test compound was added to 10 μM and 1 μM, and the cultivation was continued for additional 48 hr. After the fixation of cells, 50 μg/ml propidium iodide solution containing ribonuclease (200 μg/ml) was added to stain nuclei. The stained nuclei were observed under a fluorescent microscope to analyze the nuclei for abnormality of karyomorphosis.

Human glioma cells GL07 = assay: Antitumor effect on human glioma cells (GL07) transplanted into nude mice; assay type: in vivo; details: 20 mg/kg once a day for 9 days; for inhibition in vivo at 20 mg/kg: Mus musculus, Glioma cell, 216 h, read-out: TGIR, % (tumor growth inhibition rate)
Procedure, shortened: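 GL07 xenografts in nude mice, grouped (n=4) at ~100 mm^3 tumor volume. Test compound 20 mg/kg p.o. or i.p. once daily for 9 days; vehicle controls. TGIR = (1−Tx/Cx)×100 from tumor volumes normalized to day-of-start volume = 1.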

[2] = test system: activation of MAPK within vascular endothelial cells induced by VEGF stimulation; assay: Inhibitory activity against activation of MAPK within vascular endothelial cells induced by VEGF stimulation; assay type: cell-based; details: human funicular venous vascular endothelial cells, VEGF 50 ng/ml, phosphorylated MAPK by immunoblotting
Procedure, shortened: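 Serum-starved (0.5% FCS, 24 h) human umbilical vein endothelial cells pretreated with compound 1 h at 37 °C, then stimulated with 50 ng/ml recombinant human VEGF for 8 min.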

Compound	Change in morphosis [1]	inhibition in vivo at 20 mg/kg (Human glioma cells GL07; ip, GL07, intraperitoneal)	IC50 ([2]; Endothelial cell)	TGIR, % (tumor growth inhibition rate) (Human glioma cells GL07; GL07, intraperitoneal)	IC50 [2]	inhibition in vivo at 20 mg/kg (Human glioma cells GL07; GL07, oral)	TGIR, % (tumor growth inhibition rate) (Human glioma cells GL07; GL07, oral)
COc1cc2nccc(Oc3ccc(NC(=O)Nc4ccc(Cl)cn4)c(Cl)c3)c2cc1OC [Example 16, N-{2-Chloro-4-[(6,7-dimethoxy-4-quinolyl)oxy]phenyl}-N′-(5-chloro-2-pyridyl)urea]	(−) (the change in karyomorphosis of cells did not take place at 10 μM)	77%	2.9 nM	–	–	–	–
COc1cc2nccc(Oc3ccc(NC(=O)Nc4ccc(Br)cn4)c(Cl)c3)c2cc1OC [Example 17, N-(5-Bromo-2-pyridyl)-N′-{2-chloro-4-[(6,7-dimethoxy-4-guinolyl)oxy]phenyl}urea]	(−) (the change in karyomorphosis of cells did not take place at 10 μM)	–	–	85%	11 nM	–	–
COc1ccccc1NC(=O)Nc1ccc(Oc2ccnc3cc(OC)c(OC)cc23)cc1Cl [Example 18, N-{2-Chloro-4-[(6,7-dimethoxy-4-quinolyl)oxy]phenyl}-N′-(2-methoxyphenyl)urea]	(−) (the change in karyomorphosis of cells did not take place at 10 μM)	–	0.6 nM	–	–	57%	–
COc1cc2nccc(Oc3ccc(NC(=O)Nc4ccc(F)cc4F)c(C)c3C)c2cc1OC [Example 24, N-(2,4-Difluorophenyl)-N′-{4-[(6,7-dimethoxy-4-guinolyl)oxy]-2,3-dimethylphenyl}urea]	(−) (the change in karyomorphosis of cells did not take place at 10 μM)	–	–	–	0.6 nM	–	63%
COc1cc2nccc(Oc3ccc(NC(=O)Nc4ccc(F)cc4C)c(C)c3C)c2cc1OC [Example 25, N-{4-[(6,7-Dimethoxy-4-guinolyl)oxy]-2,3-dimethylphenyl}-N′-(4-fluoro-2-methylphenyl)urea]	(−) (the change in karyomorphosis of cells did not take place at 10 μM)	–	–	68%	3.9 nM	–	–
COc1cc2nccc(Oc3ccc(NC(=O)Nc4ccc(Cl)cn4)c(C)c3C)c2cc1OC [Example 28, N-(5-Chloro-2-pyridyl)-N′-{4-[(6,7-dimethoxy-4-guinolyl)oxy]-2,3-dimethylphenyl}urea]	(−) (the change in karyomorphosis of cells did not take place at 10 μM)	–	–	84%	4 nM	–	–
COc1cc2nccc(Oc3ccc(NC(=O)Nc4ccc(Br)cn4)c(C)c3C)c2cc1OC [Example 29, N-(5-Bromo-2-pyridyl)-N′-{4-[(6,7-dimethoxy-4-quinolyl)oxy]-2,3-dimethylphenyl}urea]	(−) (the change in karyomorphosis of cells did not take place at 10 μM)	–	4.4 nM	–	–	64%	–
COc1cc2nccc(Oc3cc(C)c(NC(=O)Nc4ccc(F)cc4F)cc3C)c2cc1OC [Example 37, N-(2,4-Difluorophenyl)-N′-{4-[(6,7-dimethoxy-4-quinolyl)oxy]-2,5-dimethylphenyl}urea]	(−) (the change in karyomorphosis of cells did not take place at 10 μM)	70%	2.3 nM	–	–	–	–
COc1cc2nccc(Oc3ccc(NC(=O)Nc4ccc(F)cc4F)c([N+](=O)[O-])c3)c2cc1OC [Example 48, N-(2,4-Difluorophenyl)-N′-{4-[(6,7-dimethoxy-4-quinolyl)oxy]-2-nitrophenyl}urea]	(−) (the change in karyomorphosis of cells did not take place at 10 μM)	90%	0.5 nM	–	–	–	–
CCCNC(=O)Nc1ccc(Oc2ncnc3cc(OC)c(OC)cc23)cc1Cl [Example 62, N-{2-chloro-4-[(6,7-dimethoxy-4-quinazolinyl)-oxy]phenyl}-N′-propylurea]	(−) (the change in karyomorphosis of cells did not take place at 10 μM)	–	16 nM	–	–	78%	–
